Results on 22 molecules are retold here after patent US12162890B2 (Novartis AG, priority 2015, dated 2024).

This test deals with HEK293 cells with stable expression of the GRIN1 gene and tetracycline-inducible expression of the GRIN2B gene (NMDA receptor, NR2B) (Homo sapiens, UniProt Q13224). Kind of test: Fluo-8 Ca2+ flux assay: reversal of Ro 25-6981-mediated suppression of the Ca2+ response to co-agonist (glutamate/glycine). Also: test concentration or dose not given here. Conditions: reversal of the Ro 25-6981 suppression of the Ca2+ response to co-agonist (glutamate/glycine). It is filed as cell-based. (Calcium flux is commonly read through the fluorescence of an indicator in the cells.)
Chain of HEK293 cells with stable expression of the GRIN1 gene and tetracycline-inducible expression of the GRIN2B gene (NMDA receptor, NR2B) (Q13224 27-1484, other chains not shown): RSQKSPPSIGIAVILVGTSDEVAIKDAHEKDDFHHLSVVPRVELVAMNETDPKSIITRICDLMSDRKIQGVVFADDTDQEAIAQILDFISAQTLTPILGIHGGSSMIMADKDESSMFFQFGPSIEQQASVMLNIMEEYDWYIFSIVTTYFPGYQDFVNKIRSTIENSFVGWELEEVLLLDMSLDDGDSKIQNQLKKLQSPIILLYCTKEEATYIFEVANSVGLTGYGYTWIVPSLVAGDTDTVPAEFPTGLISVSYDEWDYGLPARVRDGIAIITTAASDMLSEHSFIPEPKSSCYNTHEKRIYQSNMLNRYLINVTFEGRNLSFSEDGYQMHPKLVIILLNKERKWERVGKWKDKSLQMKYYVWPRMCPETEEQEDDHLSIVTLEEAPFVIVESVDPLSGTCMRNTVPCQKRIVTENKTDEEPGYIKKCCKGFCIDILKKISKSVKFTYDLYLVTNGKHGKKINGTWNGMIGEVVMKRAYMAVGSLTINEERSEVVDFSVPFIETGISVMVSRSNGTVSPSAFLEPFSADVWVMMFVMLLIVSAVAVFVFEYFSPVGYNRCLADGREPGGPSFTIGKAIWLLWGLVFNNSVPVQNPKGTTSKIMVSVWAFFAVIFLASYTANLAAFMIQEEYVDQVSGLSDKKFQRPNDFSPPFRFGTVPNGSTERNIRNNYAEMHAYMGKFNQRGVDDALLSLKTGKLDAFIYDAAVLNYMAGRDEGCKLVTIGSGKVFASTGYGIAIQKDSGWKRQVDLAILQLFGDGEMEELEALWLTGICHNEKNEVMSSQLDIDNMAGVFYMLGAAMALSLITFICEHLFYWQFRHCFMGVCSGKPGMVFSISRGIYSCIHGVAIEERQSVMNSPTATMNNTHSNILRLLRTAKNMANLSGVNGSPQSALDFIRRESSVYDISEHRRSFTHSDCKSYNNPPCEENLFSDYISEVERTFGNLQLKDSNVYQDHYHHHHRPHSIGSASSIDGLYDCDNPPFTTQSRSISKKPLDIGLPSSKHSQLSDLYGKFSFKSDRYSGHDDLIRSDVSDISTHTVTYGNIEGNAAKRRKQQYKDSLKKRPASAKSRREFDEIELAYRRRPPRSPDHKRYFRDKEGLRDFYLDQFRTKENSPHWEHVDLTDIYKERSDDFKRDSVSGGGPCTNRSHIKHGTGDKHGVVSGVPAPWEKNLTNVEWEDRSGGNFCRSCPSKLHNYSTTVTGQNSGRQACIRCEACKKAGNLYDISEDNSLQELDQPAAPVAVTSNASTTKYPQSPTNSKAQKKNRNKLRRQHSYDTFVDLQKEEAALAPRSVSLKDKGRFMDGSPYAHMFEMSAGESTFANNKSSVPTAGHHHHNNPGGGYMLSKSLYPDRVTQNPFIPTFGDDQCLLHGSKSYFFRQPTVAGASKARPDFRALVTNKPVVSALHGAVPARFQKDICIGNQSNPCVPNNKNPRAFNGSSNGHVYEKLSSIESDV
For `O=C(Cn1ccn2ccc(-c3ccc(F)c(Cl)c3)c2c1=O)N1CC(F)(CF)C1` [Example 402, 8-(3-chloro-4-fluorophenyl)-2-(2-(3-fluoro-3-(fluoromethyl)azetidin-1-yl)-2-oxoethyl)pyrrolo[1,2-a]pyrazin-1(2H)-one], the “Response Recovered (%)” value is 130%.

As for `O=C(Cn1ccn2ccc(-c3ccc(Cl)c(Cl)c3)c2c1=O)N1CC(F)(CF)C1` [Example 403, 8-(3,4-dichlorophenyl)-2-(2-(3-fluoro-3-(fluoromethyl)azetidin-1-yl)-2-oxoethyl)pyrrolo[1,2-a]pyrazin-1(2H)-one], the “Response Recovered (%)” value was 130%.

With `CC1(F)CN(C(=O)Cn2ccn3ccc(-c4cnc(Cl)c(Cl)c4)c3c2=O)C1` [Example 404, 8-(5,6-dichloropyridin-3-yl)-2-(2-(3-fluoro-3-methylazetidin-1-yl)-2-oxoethyl)pyrrolo[1,2-a]pyrazin-1(2H)-one], the “Response Recovered (%)” value is 58%.

As for `CCC1(F)CN(C(=O)Cn2ccn3ccc(-c4cnc(Cl)c(Cl)c4)c3c2=O)C1` [Example 405, 8-(5,6-dichloropyridin-3-yl)-2-(2-(3-ethyl-3-fluoroazetidin-1-yl)-2-oxoethyl)pyrrolo[1,2-a]pyrazin-1(2H)-one], the “Response Recovered (%)” value was 61%.

`O=C(Cn1ccn2ccc(-c3cnc(Cl)c(Cl)c3)c2c1=O)N1CC(F)(CF)C1` [Example 406, 8-(5,6-dichloropyridin-3-yl)-2-(2-(3-fluoro-3-(fluoromethyl)azetidin-1-yl)-2-oxoethyl)pyrrolo[1,2-a]pyrazin-1(2H)-one]: the “Response Recovered (%)” value is reported as 85%.

Regarding `O=C(Cn1ccn2ccc(-c3ccc(F)c(C(F)(F)F)c3)c2c1=O)N1CC(F)(CF)C1` [Example 407, 2-(2-(3-fluoro-3-(fluoromethyl)azetidin-1-yl)-2-oxoethyl)-8-(4-fluoro-3-(trifluoromethyl)phenyl)pyrrolo[1,2-a]pyrazin-1(2H)-one], the “Response Recovered (%)” value is reported as 130%.

As for `Cc1cc(-c2ccn3ccn(CC(=O)N4CC(C)(F)C4)c(=O)c23)cnc1Cl` [Example 408, 8-(6-chloro-5-methylpyridin-3-yl)-2-(2-(3-fluoro-3-methylazetidin-1-yl)-2-oxoethyl)pyrrolo[1,2-a]pyrazin-1(2H)-one], the “Response Recovered (%)” value stood at 51%.

For `Cc1cc(-c2ccn3ccn(CC(=O)N4CC(F)(CF)C4)c(=O)c23)cnc1Cl` [Example 409, 8-(6-chloro-5-methylpyridin-3-yl)-2-(2-(3-fluoro-3-(fluoromethyl)azetidin-1-yl)-2-oxoethyl)pyrrolo[1,2-a]pyrazin-1(2H)-one], the “Response Recovered (%)” value stood at 33%.

Consider `CCC1(F)CN(C(=O)Cn2ccn3ccc(-c4cnc(Cl)c(C)c4)c3c2=O)C1` [Example 410, 8-(6-chloro-5-methylpyridin-3-yl)-2-(2-(3-ethyl-3-fluoroazetidin-1-yl)-2-oxoethyl)pyrrolo[1,2-a]pyrazin-1(2H)-one], for which the “Response Recovered (%)” value worked out at 34%.

As for `Cc1cn(CC(=O)N2CCC(F)C2)c(=O)c2c(-c3ccc(F)c(C(F)(F)F)c3)ccn12` (stereo not shown) [Example 411, 8-(4-fluoro-3-(trifluoromethyl)phenyl)-2-(2-(3-fluoropyrrolidin-1-yl)-2-oxoethyl)-4-methylpyrrolo[1,2-a]pyrazin-1(2H)-one], the “Response Recovered (%)” value came to 59%.

On to `Cc1cn(CC(=O)N2CCC(F)C2)c(=O)c2c(-c3ccc(F)c(C(F)(F)F)c3)cc(Br)n12` (stereo not shown) [Example 412, 6-bromo-8-(4-fluoro-3-(trifluoromethyl)phenyl)-2-(2-(3-fluoropyrrolidin-1-yl)-2-oxoethyl)-4-methylpyrrolo[1,2-a]pyrazin-1(2H)-one], for which the “Response Recovered (%)” value came to 38%.

With `Cc1cn(CC(=O)N2CCC(F)C2)c(=O)c2c(-c3ccc(Cl)c(Cl)c3)ccn12` (stereo not shown) [Example 413, 8-(3,4-dichlorophenyl)-2-(2-(3-fluoropyrrolidin-1-yl)-2-oxoethyl)-4-methylpyrrolo[1,2-a]pyrazin-1(2H)-one], the “Response Recovered (%)” value stood at 43%.

Consider `Cc1cn(CC(=O)N2CCC(F)C2)c(=O)c2c(-c3ccc(F)c(Cl)c3)ccn12` (stereo not shown) [Example 414, 8-(3-chloro-4-fluorophenyl)-2-(2-(3-fluoropyrrolidin-1-yl)-2-oxoethyl)-4-methylpyrrolo[1,2-a]pyrazin-1(2H)-one], for which the “Response Recovered (%)” value was determined as 112%.

On to `Cc1cn(CC(=O)N2CCC(F)C2)c(=O)c2c(-c3ccc(F)c(Cl)c3)cc(Br)n12` (stereo not shown) [Example 415, 6-bromo-8-(3-chloro-4-fluorophenyl)-2-(2-(3-fluoropyrrolidin-1-yl)-2-oxoethyl)-4-methylpyrrolo[1,2-a]pyrazin-1(2H)-one], for which the “Response Recovered (%)” value turned out to be 52%.

In the case of `Cc1cn(CC(=O)N2CC(C)(F)C2)c(=O)c2c(-c3ccc(F)c(Cl)c3)ccn12` [Example 416, 8-(3-chloro-4-fluorophenyl)-2-(2-(3-fluoro-3-methylazetidin-1-yl)-2-oxoethyl)-4-methylpyrrolo[1,2-a]pyrazin-1(2H)-one], the “Response Recovered (%)” value was 110%.

As for `Cc1cn(CC(=O)N2CC(F)(F)C2)c(=O)c2c(-c3ccc(F)c(Cl)c3)ccn12` [Example 417, 8-(3-chloro-4-fluorophenyl)-2-(2-(3,3-difluoroazetidin-1-yl)-2-oxoethyl)-4-methylpyrrolo[1,2-a]pyrazin-1(2H)-one], the “Response Recovered (%)” value stood at 20%.

As to `CCC1(F)CN(C(=O)Cn2cc(C)n3ccc(-c4ccc(F)c(Cl)c4)c3c2=O)C1` [Example 418, 8-(3-chloro-4-fluorophenyl)-2-(2-(3-ethyl-3-fluoroazetidin-1-yl)-2-oxoethyl)-4-methylpyrrolo[1,2-a]pyrazin-1(2H)-one], the “Response Recovered (%)” value turned out to be 74%.

As for `Cc1cn(CC(=O)N2CC(C)(F)C2)c(=O)c2c(-c3ccc(Cl)c(Cl)c3)ccn12` [Example 419, 8-(3,4-dichlorophenyl)-2-(2-(3-fluoro-3-methylazetidin-1-yl)-2-oxoethyl)-4-methylpyrrolo[1,2-a]pyrazin-1(2H)-one], the “Response Recovered (%)” value was found to be 110%.

For `Cc1cn(CC(=O)N2CC(C)(F)C2)c(=O)c2c(-c3cnc(Cl)c(Cl)c3)ccn12` [Example 420, 8-(5,6-dichloropyridin-3-yl)-2-(2-(3-fluoro-3-methylazetidin-1-yl)-2-oxoethyl)-4-methylpyrrolo[1,2-a]pyrazin-1(2H)-one], the “Response Recovered (%)” value was found to be 69%.

As for `Cc1cn(CC(=O)N2CC(F)(CF)C2)c(=O)c2c(-c3cnc(Cl)c(Cl)c3)ccn12` [Example 421, 8-(5,6-dichloropyridin-3-yl)-2-(2-(3-fluoro-3-(fluoromethyl)azetidin-1-yl)-2-oxoethyl)-4-methylpyrrolo[1,2-a]pyrazin-1(2H)-one], the “Response Recovered (%)” value was found to be 92%.

`CCC1(F)CN(C(=O)Cn2cc(C)n3ccc(-c4cnc(Cl)c(Cl)c4)c3c2=O)C1` [Example 422, 8-(5,6-dichloropyridin-3-yl)-2-(2-(3-ethyl-3-fluoroazetidin-1-yl)-2-oxoethyl)-4-methylpyrrolo[1,2-a]pyrazin-1(2H)-one]: the “Response Recovered (%)” value stood at 29%.

Consider `O=C(Cn1ccn2c(Br)cc(-c3ccc(F)c(C(F)(F)F)c3)c2c1=O)N1CCC(F)C1` (stereo not shown) [Example 423, 6-bromo-8-(4-fluoro-3-(trifluoromethyl)phenyl)-2-(2-(3-fluoropyrrolidin-1-yl)-2-oxoethyl)pyrrolo[1,2-a]pyrazin-1(2H)-one], for which the “Response Recovered (%)” value came to 72%.
